Like-named read-outs stand apart in the source and are kept apart here.
What was measured:
[1] = test system: 3D7-strain P. falciparum asexual parasites; test: P. falciparum asexual growth inhibition assay (Pf GIA); assay type: cell-based, Plasmodium falciparum; conditions: dose response confirmation; read-out: Pf asexual growth inhibition assays IC50
Protocol: The asexual activity of active compounds was tested in dose response with parasite lactate dehydrogenase (LDH) activity used as a readout of parasite viability as described in [Gamo et al. (2010)]. Briefly, 3D7-strain P. falciparum asexual parasites were diluted to 0.25% parasitemia, 2% hematocrit in culture medium composed of RPMI medium with 25 mM HEPES, 2% D-sucrose, 0.3% L-glutamine, 150 μM hypoxanthine plus 5% albumax. 25 μl of parasite inoculum was then dispensed into each well of a 384 well plate containing test compounds and positive (50 μM chloroquine) and negative (DMSO) controls. Plates were incubated for 72 h at 37°C in a 5% CO2, 5%O2, 90% N2 environment before being frozen at −70°C. Plates were then thawed and 70 μl of reaction mix (143 mM sodium L-lactate, 143 mM 3-acetyl pyridine adenine dinucleotide, […] Nitro Blue tetrazolium chloride, […] diaphorase (2.83 U/ml), 0.7% Tween 20, 100 mM Tris–HCl pH 8.0) was added to each well using a Multidrop Combi automated dispenser. Plates were shaken to mix and then absorbance at 650 nm was measured after 10 min incubation at room temperature. Percent inhibition of asexual growth was then calculated with respect to positive and negative controls. Data presented is the mean of three independent biological replicates.

HepG2 cells = test: HepG2 cytotoxicity assay; conditions: for IC50: read-out: HepG2 cytotoxicity assay IC50, dose response confirmation; for Unified cytotox: unified HepG2 value across the three screens; for Pb ODA (this manuscript) HepG2 cytoxicity: HepG2 cytotoxicity listed with the Pb ODA data set (this manuscript)
Protocol: Briefly, HepG2 cells were seeded onto compound-treated 384 well plates at a density of 2,500 cells per well in Minimal Essential Medium (MEM) plus 10% fetal bovine serum and 1% non-essential amino acids solution (NEAA). Cells were incubated with test compounds or 50 μM doxorubicin (positive) and DSMO (negative) controls at 37°C for 48 h in a humidified 5% CO2 atmosphere. […] Cell viability was then measured in a fluorescent plate reader and percent inhibition calculated with respect to positive and negative controls.

[2] = test system: P. berghei ookinete development; conditions: for % inhibition, Replicate A / % inhibition, Replicate B: primary screen at 1 μM
[3] = read-out: Pb ODA IC50, this manuscript
[4] = read-out: Pb Ookinete development assay IC50, dose response confirmation
[5] = read-out: Pb ODA (this manuscript) IC50, P. berghei ookinete development assay, this manuscript

CC(=O)Nc1ccc(Nc2c3ccccc3nc3ccccc23)cc1 [TCMDC-124356]
IC50 [1]: 1090 nM
IC50 (HepG2 cells): 14100 nM
Unified cytotox (HepG2 cells): 14.13 µM
Is compound selective in assay? Pb ODA active? ([2]; 1: YES, 0: NO): 1 (1: YES)
% inhibition, Replicate A [2]: 62.81%
% inhibition, Replicate B [2]: 63.52%
IC50 [2, 3]: 600 nM
IC50 [2, 4]: 598 nM

CCn1c(C)cc(C=C2SC(=Nc3ccccc3)NC2=O)c1C [TCMDC-124456]
IC50 [1]: 1700 nM
IC50 (HepG2 cells): 97300 nM
Unified cytotox (HepG2 cells): 97.27 µM
Is compound selective in assay? Pb ODA active? ([2]; 1: YES, 0: NO): 1 (1: YES)
% inhibition, Replicate A [2]: 41.94%
% inhibition, Replicate B [2]: 67.52%
IC50 [2, 3]: 1010 nM
IC50 [2, 4]: 1000 nM

COc1ccc(C=C2SC(=N)N(c3ccccc3OC)C2=O)cc1 [TCMDC-124486]
IC50 [1]: 343 nM
IC50 (HepG2 cells): 24600 nM
Unified cytotox (HepG2 cells): 24.55 µM
Is compound selective in assay? Pb ODA active? ([2]; 1: YES, 0: NO): 1 (1: YES)
% inhibition, Replicate A [2]: 113.35%
% inhibition, Replicate B [2]: 91.87%
IC50 [2, 3]: 680 nM
IC50 [2, 4]: 682 nM

Cc1cc2nc(/N=C(\N)NC(=O)NC3CCCCC3)nc(C)c2cc1C [TCMDC-124528]
IC50 [1]: 396 nM
Pb ODA (this manuscript) HepG2 cytoxicity (HepG2 cells): 8.51 µM
IC50 (HepG2 cells): 8510 nM
Is compound selective in assay? Pb ODA active? [2]: 1 (key: 1: YES; 0: NO)
% inhibition, Replicate A [2]: 53.37%
% inhibition, Replicate B [2]: 63.38%
IC50 [2, 5]: 850 nM
IC50 [2, 4]: 846 nM

CCc1cc2c(Sc3nc4ccccc4[nH]3)ncnc2s1 [TCMDC-124553]
IC50 [1]: 1760 nM
IC50 (HepG2 cells): 100000 nM
Unified cytotox (HepG2 cells): 100.00 µM
Is compound selective in assay? Pb ODA active? ([2]; 1: YES, 0: NO): 1 (1: YES)
% inhibition, Replicate A [2]: 56.26%
% inhibition, Replicate B [2]: 84.90%
IC50 [2, 3]: 1000 nM
IC50 [2, 4]: 998 nM

Cc1ccc2nc(/N=C(\N)NC(=O)NC3CCCCC3)nc(C)c2c1 [TCMDC-124557]
IC50 [1]: 4680 nM
Pb ODA (this manuscript) HepG2 cytoxicity (HepG2 cells): 57.54 µM
IC50 (HepG2 cells): 57500 nM
Is compound selective in assay? Pb ODA active? [2]: 1 (key: 1: YES; 0: NO)
% inhibition, Replicate A [2]: 85.28%
% inhibition, Replicate B [2]: 75.31%
IC50 [2, 5]: 1750 nM
IC50 [2, 4]: 1750 nM

COc1cccc(C=Cc2nc(=O)c3ccccc3o2)c1OC [TCMDC-124577]
IC50 [1]: 146 nM
Pb ODA (this manuscript) HepG2 cytoxicity (HepG2 cells): 100.00 µM
IC50 (HepG2 cells): 100000 nM
Is compound selective in assay? Pb ODA active? [2]: 1 (key: 1: YES; 0: NO)
% inhibition, Replicate A [2]: 107.06%
% inhibition, Replicate B [2]: 83.20%
IC50 [2, 5]: 50 nM
IC50 [2, 4]: 49 nM

c1ccc(CCNc2ncnc3c2[nH]c2ccccc23)cc1 [TCMDC-124578]
IC50 [1]: 270 nM
IC50 (HepG2 cells): 10600 nM
Unified cytotox (HepG2 cells): 10.59 µM
Is compound selective in assay? Pb ODA active? ([2]; 1: YES, 0: NO): 1 (1: YES)
% inhibition, Replicate A [2]: 104.22%
% inhibition, Replicate B [2]: 87.03%
IC50 [2, 3]: 370 nM
IC50 [2, 4]: 368 nM

O=C(c1cc(-c2ccco2)[nH]n1)N1CCN(S(=O)(=O)c2ccc(Cl)cc2)CC1 [TCMDC-124698]
IC50 [1]: 563 nM
Pb ODA (this manuscript) HepG2 cytoxicity (HepG2 cells): 100.00 µM
IC50 (HepG2 cells): 100000 nM
Is compound selective in assay? Pb ODA active? [2]: 1 (key: 1: YES; 0: NO)
% inhibition, Replicate A [2]: 67.42%
% inhibition, Replicate B [2]: 51.92%
IC50 [2, 5]: 1120 nM
IC50 [2, 4]: 1120 nM

O=C(c1cc(-c2ccco2)[nH]n1)N1CCN(S(=O)(=O)c2ccc(Br)cc2)CC1 [TCMDC-124699]
IC50 [1]: 178 nM
Pb ODA (this manuscript) HepG2 cytoxicity (HepG2 cells): 100.00 µM
IC50 (HepG2 cells): 100000 nM
Is compound selective in assay? Pb ODA active? [2]: 1 (key: 1: YES; 0: NO)
% inhibition, Replicate A [2]: 66.14%
% inhibition, Replicate B [2]: 59.38%
IC50 [2, 4]: 1020 nM

O=C(c1cc(-c2cccs2)[nH]n1)N1CCN(S(=O)(=O)c2ccc(Cl)cc2)CC1 [TCMDC-124702]
IC50 [1]: 27 nM
Pb ODA (this manuscript) HepG2 cytoxicity (HepG2 cells): 42.17 µM
IC50 (HepG2 cells): 42200 nM
Is compound selective in assay? Pb ODA active? [2]: 0 (key: 1: YES; 0: NO)
% inhibition, Replicate A [2]: 58.15%
% inhibition, Replicate B [2]: 68.92%
IC50 [2, 5]: 4340 nM
IC50 [2, 4]: 4340 nM

CCn1c(CN2CCC(C)CC2)nc2cc(NC(=O)c3cccs3)ccc21 [TCMDC-124730]
IC50 [1]: 182 nM
IC50 (HepG2 cells): 75900 nM
Unified cytotox (HepG2 cells): 75.86 µM
Is compound selective in assay? Pb ODA active? ([2]; 1: YES, 0: NO): 1 (1: YES)
% inhibition, Replicate A [2]: 78.95%
% inhibition, Replicate B [2]: 101.97%
IC50 [2, 4]: 350 nM

COc1cc(OC)c(NC(=O)C2c3ccccc3C(=O)N(CC(C)C)C2c2cccs2)cc1Cl (centres unmarked) [TCMDC-124760]
IC50 [1]: 108 nM
IC50 (HepG2 cells): 100000 nM
Unified cytotox (HepG2 cells): 100.00 µM
Is compound selective in assay? Pb ODA active? ([2]; 1: YES, 0: NO): 1 (1: YES)
% inhibition, Replicate A [2]: 44.76%
% inhibition, Replicate B [2]: 67.88%
IC50 [2, 3]: 8610 nM
IC50 [2, 4]: 8610 nM

COc1cccc(CC(=O)N2CCC(n3c(C)nc4ccc(F)cc43)CC2)c1 [TCMDC-124792]
IC50 [1]: 208 nM
IC50 (HepG2 cells): 100000 nM
Unified cytotox (HepG2 cells): 100.00 µM
Is compound selective in assay? Pb ODA active? ([2]; 1: YES, 0: NO): 1 (1: YES)
% inhibition, Replicate A [2]: 59.80%
% inhibition, Replicate B [2]: 82.85%
IC50 [2, 3]: 790 nM
IC50 [2, 4]: 794 nM

Cl.O=C(NC1CCN(CC2(c3ccc(Cl)cc3)CCCCC2)CC1)c1cc[nH]n1 [TCMDC-124828]
IC50 [1]: 66 nM
Pb ODA (this manuscript) HepG2 cytoxicity (HepG2 cells): 35.89 µM
IC50 (HepG2 cells): 35900 nM
Is compound selective in assay? Pb ODA active? [2]: 1 (key: 1: YES; 0: NO)
% inhibition, Replicate A [2]: 40.92%
% inhibition, Replicate B [2]: 76.27%
IC50 [2, 5]: 1620 nM
IC50 [2, 4]: 1620 nM

Cc1cc(C(=O)NC2CCN(CC3(c4ccccc4)CCCCC3)CC2)on1 [TCMDC-124832]
IC50 [1]: < 0.2 nM
IC50 (HepG2 cells): 13500 nM
Unified cytotox (HepG2 cells): 13.49 µM
Is compound selective in assay? Pb ODA active? ([2]; 1: YES, 0: NO): 1 (1: YES)
% inhibition, Replicate A [2]: 102.69%
% inhibition, Replicate B [2]: 91.64%
IC50 [2, 3]: 610 nM
IC50 [2, 4]: 613 nM

COc1coc(C(=O)NC2CCN(CC3(c4ccc(Cl)cc4)CCC3)CC2)c1OC [TCMDC-124835]
IC50 [1]: 107 nM
IC50 (HepG2 cells): 52500 nM
Unified cytotox (HepG2 cells): 52.48 µM
Is compound selective in assay? Pb ODA active? ([2]; 1: YES, 0: NO): 1 (1: YES)
% inhibition, Replicate A [2]: 73.94%
% inhibition, Replicate B [2]: 84.15%
IC50 [2, 3]: 900 nM
IC50 [2, 4]: 899 nM

O=C(NC1CCN(CC2(c3ccccc3F)CCCC2)CC1)c1ccn[nH]1 [TCMDC-124837]
IC50 [1]: 456 nM
Pb ODA (this manuscript) HepG2 cytoxicity (HepG2 cells): 41.69 µM
IC50 (HepG2 cells): 41700 nM
Is compound selective in assay? Pb ODA active? [2]: 1 (key: 1: YES; 0: NO)
% inhibition, Replicate A [2]: 77.91%
% inhibition, Replicate B [2]: 70.40%
IC50 [2, 5]: 1490 nM
IC50 [2, 4]: 1490 nM

Cc1ccc(C2(CN3CCC(NC(=O)c4[nH]ncc4Cl)CC3)CCCCC2)cc1 [TCMDC-124838]
IC50 [1]: 0.45 nM
Pb ODA (this manuscript) HepG2 cytoxicity (HepG2 cells): 27.23 µM
IC50 (HepG2 cells): 27200 nM
Is compound selective in assay? Pb ODA active? [2]: 1 (key: 1: YES; 0: NO)
% inhibition, Replicate A [2]: 44.93%
% inhibition, Replicate B [2]: 53.77%
IC50 [2, 5]: 1430 nM
IC50 [2, 4]: 1430 nM

Cc1ccc(C2(CN3CCC(NC(=O)c4ccn[nH]4)CC3)CCCCC2)cc1 [TCMDC-124839]
IC50 [1]: 138 nM
Pb ODA (this manuscript) HepG2 cytoxicity (HepG2 cells): 43.15 µM
IC50 (HepG2 cells): 43200 nM
Is compound selective in assay? Pb ODA active? [2]: 1 (key: 1: YES; 0: NO)
% inhibition, Replicate A [2]: 81.24%
% inhibition, Replicate B [2]: 59.00%
IC50 [2, 5]: 970 nM
IC50 [2, 4]: 968 nM

Source: article PMC6753678, “Fueling Open Innovation for Malaria Transmission-Blocking Drugs: Hundreds of Molecules Targeting Early Parasite Mosquito Stages” (Frontiers in Microbiology, 2019)
